Key:
[1] = set-up: method as in earlier work; details: dog; cited from earlier work
GATA2 mRNA = GATA2 mRNA in cells from SCD donors; format: cell-based, human; details: 1 μM, 3 days of culture
[2] = system: gene expression in BM cells; assay: Gene expression profiling (Affymetrix GeneChip) of erythroid progenitors; format: cell-based, human
Experimental: BM cells were cultured in CS1 expansion media for 7 days, and then shifted to CS1 differentiation media containing vehicle or 1 μM ACY-957 for 5 days. Total RNA was isolated from cells at day 5 of differentiation using RNeasy Micro Kit with on-column DNase digestion (Qiagen). This experiment was performed in triplicate using cells from three independent donors on separate days to obtain vehicle treated (n = 3) and ACY-957 treated (n = 3) samples for GeneChip analysis. GeneChip sample preparation, hybridization, and data acquisition was performed by the Covance Genomics Laboratory (Seattle, WA) using Affymetrix GeneChip PrimeView™ Human Gene Expression Array according to manufacturer’s protocol. […] For the analysis of HDAC1 or HDAC2 knockdown in erythroblasts, raw gene expression data was downloaded from NCBI GEO website, series GSE22366 [21].
Data analysis was performed using BRB-ArrayTools. GSE60791 and GSE22366 data series were imported and analyzed independently. Raw data CEL files were processed with the robust multi-chip average (RMA) algorithm. Fold changes were derived from the geometric mean of intensity values in each treatment class. In the case of GSE60791, P-values were generated between ACY-957 and vehicle treated samples using a paired t test with random variance model applied. In the case of GSE22366, P-values were generated between luciferase control and HDAC1 or HDAC2 knockdown samples using a two-sample t test with random variance model applied.
Duplicate gene symbols were removed by selecting the probe set with the lowest P-value. Next, these 4 gene sets were appended to the Molecular Signatures Database collection of Chemical and Genetic Perturbations. This database contained approximately 2777 gene sets, each containing at least 15 genes and no more than 10000 genes. Finally, log base 2 mRNA data from ACY-957 or vehicle treated cells was loaded into the publically available GSEA software from the Broad Institute and queried against the database of gene sets described above. ACY-957 phenotype was compared against vehicle phenotype by first collapsing the data set to gene symbols based on maximum probe signal and then using a weighted, signal-to-noise metric for ranking genes. Gene set permutations were performed to generate nominal P-values for each gene set.
We interrogated the mechanism through which HDAC1/2 inhibition induces HBG by performing gene expression profiling on ACY-957 or vehicle treated cells in CS1. Because HDAC inhibition prevented cells from fully upregulating GYPA (Fig 4) we isolated RNA at day 5 of differentiation, a time point prior to the observed differentiation block.

HDAC2 = HDAC2 (Homo sapiens, UniProt Q92769); assay: Cellular HDAC2 inhibition (HDAC-Glo 2 Kit) in BM cells; format: cell-based; set-up: endogenous in cells; host or cells: primary human bone marrow (BM) cells expanded in CS1 media; details: CS1 expansion media 6 days, then 48 hours with compound, n = 6
Experimental: The HDAC-Glo 2 Kit (Promega) was used for in vivo HDAC2 inhibition assays [27, 28]. First, BM cells were expanded in CS1 for 6 days. Next, 25000 cells in 25 μL of CS1 expansion media was placed in a 384-well plate in the presence of compound. Cells were cultured for an additional 48 hours, followed by luminescence detection in the lytic format as described by the manufacturer’s protocol.

[3] = system: erythroid differentiation of BM cells; assay: Erythroid maturation stage by flow cytometry (TFRC and GYPA); format: cell-based, human; details: for cells in TFRC/GYPA gate (gate not named): Fig 5A
Experimental: Flow cytometry was performed on a FC500 flow cytometer ([…]). Fetal hemoglobin protein was assayed using the Fetal Hemoglobin Test Kit (Life Technologies) according to manufacturer’s protocol. Samples were stained with FITC-conjugated mouse IgG1 anti-human HbF antibody (clone HbF-1, Life Technologies). Each sample was also stained with a FITC-conjugated mouse IgG1 isotype control antibody (clone X40, BD Biosciences) and used as a negative control. FETALtrol cells were used as positive controls (Trillium Diagnostics). TFRC and GYPA were detected on fresh cells by staining with 20 μL of PE-conjugated anti-human TFRC (clone M-A712, catalog 555537, BD Biosciences) and 0.5 μL of FITC- or APC-conjugated anti-human GYPA (clone GA-R2 (HIR2), catalog 559943 or 551336, BD Biosciences) in 200 μL PBS with 0.1% BSA for 40 min on ice. Forward and side scatter, or staining with 7AAD (catalog 559925, BD Biosciences), was used to identify viable cells.
To investigate the effects of HDAC1/2 inhibition on erythroid maturation, we followed differentiation by flow cytometry using TFRC and GYPA [38]. BM cells were cultured in CS1 expansion media for 7 days, yielding a pool of TFRC^negGYPA^neg cells composed of primitive and more differentiated hematopoietic progenitors of multiple lineages (Fig 4, ‘day 0’). These cells were then shifted to CS1 differentiation media containing either 1 μM of ACY-957 or vehicle control. […] The majority of vehicle control cells continued to differentiate over the next 3 days, becoming TFRC^posGYPA^pos by day 8. […] TFRC^posGYPA^mid cells are equivalent to proerythroblasts, while TFRC^posGYPA^pos cells include the more differentiated basophilic and polychromatic erythroblasts. Therefore, HDAC1/2 inhibition using 1 μM of ACY-957 was able to inhibit differentiation of proerythroblasts to basophilic erythroblasts in the liquid culture systems utilized in this study.

[4] = treatment versus control, 1 μM, day 5
[5] = CS1 differentiation media, 1 μM

HDAC2, sequence (Q92769 whole entry): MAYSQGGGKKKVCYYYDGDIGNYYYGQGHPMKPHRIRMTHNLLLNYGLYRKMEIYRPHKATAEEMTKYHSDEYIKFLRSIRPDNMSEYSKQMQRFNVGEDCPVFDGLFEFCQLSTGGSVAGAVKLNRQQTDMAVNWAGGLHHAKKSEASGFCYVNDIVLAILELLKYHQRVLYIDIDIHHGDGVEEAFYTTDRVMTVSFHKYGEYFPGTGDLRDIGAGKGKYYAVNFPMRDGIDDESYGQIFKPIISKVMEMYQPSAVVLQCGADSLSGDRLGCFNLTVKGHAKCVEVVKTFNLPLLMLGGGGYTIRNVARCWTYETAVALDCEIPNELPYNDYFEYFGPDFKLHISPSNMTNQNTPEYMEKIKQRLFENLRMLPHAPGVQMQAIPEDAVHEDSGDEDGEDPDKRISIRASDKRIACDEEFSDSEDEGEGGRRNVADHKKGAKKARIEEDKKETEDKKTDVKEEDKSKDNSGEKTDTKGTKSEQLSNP

Nc1ccc(-c2cccs2)cc1NC(=O)c1ccc2nc(N3CCNCC3)ccc2c1 [ACY-957]
pharmacokinetic properties [1]: favorable | GATA2 expression in primary cells derived from SCD patients (GATA2 mRNA): elevated GATA2 expression | BCL11A down-regulated ([2]; GeneChip, 1 μM, day 5): 1.3 fold | GATA2 up-regulated ([2]; GeneChip, 1 μM, day 5): 2.8 fold | SOX6 down-regulated ([2]; GeneChip, 1 μM, day 5): 2.5 fold | expression of HBG repressors MYB and KLF1 ([2]; GeneChip, 1 μM, day 5): unaffected | GATA2 induced (abstract) ([2]; gene expression profiling of erythroid progenitors): greater than 3 fold | BCL11A Ratio, candidate gene expression by GeneChip [2, 4]: 0.77 | GATA1 Ratio, candidate gene expression by GeneChip [2, 4]: 1.0 | GATA2 Ratio, candidate gene expression by GeneChip [2, 4]: 2.8 | KLF1 Ratio, candidate gene expression by GeneChip [2, 4]: 0.87 | MYB Ratio, candidate gene expression by GeneChip [2, 4]: 1.1 | SOX6 Ratio, candidate gene expression by GeneChip [2, 4]: 0.41 | IC50 (HDAC2): 304 nM | erythroid differentiation by day 8 [3, 5]: accumulated at the TFRC^posGYPA^mid stage | erythroid differentiation during the first 5 days [3, 5]: differentiated to the same extent as vehicle treated cells | cells in TFRC/GYPA gate (gate not named) ([3]; Donor 1, CS1, day 5, 1 μM, first gate listed): 61% | cells in TFRC/GYPA gate (gate not named) ([3]; Donor 1, CS1, day 5, 1 μM, second gate listed): 30% | cells in TFRC/GYPA gate (gate not named) ([3]; Donor 2, CS1, day 5, 1 μM, first gate listed): 62% | cells in TFRC/GYPA gate (gate not named) ([3]; Donor 2, CS1, day 5, 1 μM, second gate listed): 37% | cells in TFRC/GYPA gate (gate not named) ([3]; Donor 3, CS1, day 5, 1 μM, first gate listed): 65% | cells in TFRC/GYPA gate (gate not named) ([3]; Donor 3, CS1, day 5, 1 μM, second gate listed): 32%
